The values below come from patent US3932633A, “Novel o-triazenobenzamides, in treating aggressive behavior” (Uniroyal Inc., priority 1974, dated 1976).

Series [1] concerns maximal electroshock seizures in mice. Briefly: Maximal electroshock seizures. It is filed as in vivo, mouse. Conditions: Mus musculus, ip, 0.5 h, read-out: MES50. The method, then:
Groups of ten mice each were injected i.p. with a vehicle and the compound of Example 6 and placed in individual Plexiglas squares. Thirty minutes after i.p. injection, each mouse was administered an electric shock transcorneally at 50mA intensity, 0.2 seconds duration (Swinyard, et al, J. Pharmacol. Exptl. Ther., 106: 319, 1952). The criterion for activity is protection against tonic extension of the hind limbs. The dose necessary to protect 50% of the mice (MES50) was determined.
A general note: The maximal electroshock test induces tonic seizures with an electrical stimulus.

Series [2] has as its system aggression induced in rats by destruction of the septal area. Briefly: Septal rat aggression. The format is in vivo. The source says:
(§1) Two models of aggression are used in the primary screening for neuroleptics, (1) isolation-induced fighting in mice (IFM), and (2) aggression induced in rats by destruction of the septal area (septal rat). Compounds are first submitted, however, to the neuropharmacological profile, a standard procedure (see, e.g., Samuel Irwin, Science, 136, 123 [1962]) employed in screening a compound to determine its usefulness as a central nervous system active compound. Those agents which cause depression over a wide dose range are then submitted to the first anti-aggression screen, the isolation-induced fighting mouse assay.
(§2) The compound of Example 6 was compared with chlorpromazine and chlordiazepoxide for its anti-aggressive activity. Three models of experimentally-induced aggression in rodents were studied (R. D. Sofia, Life Science, 8: 705, 1969).

The test system of series [3] is isolation-induced fighting in mice. Briefly: Isolated fighting mouse (IFM) test / isolated mouse aggression. The format is in vivo. The note with it: for ED50 / responders at 30 mg/kg: Mus musculus, ip; for responders at 30 mg/kg: 30 mg/kg intraperitoneally, at least 40% protected = active. The method, then:
*IFM - Isolated fighting mouse test at a dose of 30 mg/kg
intraperitoneally; those compounds which protected at least 40% of the
as §1, §2

The subject of series [4] is dihydroxyphenylalanine-induced fighting behavior in mice. Briefly: Dihydroxyphenylalanine (DOPA) fighting test. Conditions: 200 mg/kg d1-DOPA; pargyline 80 mg/kg, Example 6 100 mg/kg, chlorpromazine 5 mg/kg, chlordiazepoxide 15 mg/kg. The format is in vivo, mouse. The method, then:
It is well known that when monoamine oxidase inhibitors are administered prior to the administration of d1-DOPA, which is a noradrenaline precursor, convulsions or excitation occur. In this study, the MAO inhibitor pargyline (80 mg/kg) was given 1, 2 and 4 hours prior to administering 200 mg/kg of d1-DOPA. […] Thus, in this procedure, none of the agents tested appears to be a MAO inhibitor.

Series [5] has as its system hissing response elicited by hypothalamic stimulation in cats. The note with it: Baxter, Life Sciences, 3: 531, 1964, cited from earlier work.
For series [6], the system named is d-amphetamine aggregation-induced lethality. Briefly: d-Amphetamine aggregation. It is filed as in vivo. Conditions: inactive at: Example 6 200 mg/kg, chlordiazepoxide 50 mg/kg. As to the method:
Protection from d-amphetamine aggregation-induced lethality is usually afforded by alpha-adrenergic-blocking agents such as chlorpromazine, phenoxybenzamine, etc. Percent protection was determined and an ED50 value was calculated.

The nature of series [7]: Neurotoxicity (rotating rod / rotorod), rats. Conditions: rat, in vivo, ip; I.P., rats; 95% confidence limits; read-out: NTD50. As to the method: (§3) In the neurotoxicity test, the value (NTD50) is defined as the dose necessary to cause 50% of mice or rats trained to walk a rotating wooden rod (5 rpm) to fall at the time of peak effect, and is a measure of drug effects on motor function or central nervous system toxicity. The results set forth in Table III were obtained when the compound of Example 6 was tested against chlorpromazine and chlordiazepoxide.

A further series can be described thus: 5 day lethality, mice. The note with it: mouse, in vivo, Mice, 5 day, 10 per cage, read-out: LD50 (95% Confidence Limits). The source says:
(§4) Table VIII gives the results of 5 day lethality studies following single injections of drug. All values presented represent tests conducted when animals were housed 10 per cage. The compound of Example 6 was compared with chlorpromazine and chlordiazepoxide. In these and all the preceding calculations, the method of Litchfield and Wilcoxon (J. Pharmacol. Exptl. Ther., 96: 99, 1949) was used to estimate effective (ED50) or lethal (LD50) dose.

In series [8] the test system is pentylenetetrazol seizures in mice. Briefly: Pentylenetetrazol seizures. It is filed as in vivo, mouse. Conditions: Mus musculus, ip, 1 h. As to the method: In this test (modification of the method introduced by Everett and Richard, J. Pharmacol. Exptl. Ther., 81: 402, 1944), groups of ten mice each are pretreated i.p. with vehicle and various doses of the compound of Example 6 and placed in Plexiglas squares. Thirty minutes later, all mice are injected subcutaneously (s.c.) with pentylenetetrazol at 125 mg/kg and observed immediately thereafter for convulsions and death for a period of 1 hour.

Series [9] in a line: Neurotoxicity (rotating rod / rotorod), mice. Conditions: mouse, in vivo, ip; I.P., mice; 95% confidence limits; read-out: NTD50. As to the method: as §3
A general note: In the rotarod test animals must keep their balance on a rotating rod.

Series [10] concerns electroshock-induced fighting in mice. Briefly: Electroshock-induced fighting in mice. It is filed as in vivo, mouse.
Excerpt: as §2

A short description of the next series: 5 day lethality, rats. Conditions: rat, in vivo, ip; Rats, I.P., 5 day, 10 per cage; read-out: LD50 (95% Confidence Limits).
Excerpt: as §4

In series [11] the test system is isolation-induced fighting in mice. Briefly: Isolated fighting mouse (IFM) test / isolated mouse aggression. It is filed as in vivo. The note with it: po, 30 mg/kg, per os, read-out: IFM % protected.
Setting [12] is: i.p. administration, read-out: ED50 (IFM).

Read-outs that look alike come from different tables or passages of the source.

One may read the LD50 as the dose at which mortality reaches 50%.

Turning to `CNC1=Nc2ccc(Cl)cc2C(c2ccccc2)=[N+]([O-])C1` [Chlordiazepoxide, chlordiazepoxide], the ED50 in [1] stood at 14.3 mg/kg; in series [2] (Rattus norvegicus, ip, read-out: ED50 (95% Confidence Limits), Septal Rat Aggression), 25.8 mg/kg; in series [3] (read-out: ED50 (95% Confidence Limits), Isolated Mouse Aggression), 20.5 mg/kg; in series [8] (read-out: MET50, convulsions) it was 7.1 mg/kg; in [8] (read-out: MET50, death), 2.6 mg/kg; in series [10] (Mus musculus, ip, read-out: ED50 (95% Confidence Limits), Electroshock-Induced Fighting in Mice) it was 4.2 mg/kg. Moreover, in series [2] (i.p. administration), the “NTD50/ED50, Septal Rat Aggression” value came out at 0.6. Moreover, the “NTD50/ED50, Isolated Mouse Aggression” value in [3] (i.p. administration) came out at 0.7. The “excitation, salivation, jumping, and fighting with d1-DOPA” value in [4] is on record as “these symptoms were not observed”. In addition, the entries for the “effect on hypothalamic threshold / rage response” value in series [5] and in series [5] (listed as chlordiazepoxide) were “increase the threshold of the hypothalamus to electrical stimulation” and “specific in inhibiting this response”, respectively. Moreover, the “ED50, d-amphetamine aggregation” value in series [6] is on record as “Inactive”. The TD50 in series [7] was determined as 4.3 mg/kg; in series [9], 13.8 mg/kg. For the same compound, the LD50 at 120 h worked out at 400 mg/kg in “5 day lethality, mice” (ip, I.P.); 810 mg/kg in the series “5 day lethality, mice” (po, P.O.); 265 mg/kg in the series “5 day lethality, rats”. In series [10] (i.p. administration), the “NTD50/ED50, Electroshock-Induced Fighting in Mice” value came to 3.3.

Take `NC(=O)c1ccccc1N=NNc1ccccc1C(N)=O` [Example 1, 2,2'-diazoaminobenzamide]: in series [3], the responders at 30 mg/kg amounted to 100%. Compound `NC(=O)c1ccccc1N=NNc1nccs1` [Example 2, 2-[3-(2-thiazolyl)-2(or 1)-triazeno]-benzamide] showed a responders at 30 mg/kg in [3] of 80%. Besides, the ED50 in [3] (setting [12]) came to 9.4 mg/kg.

In the case of `CCn1c2ccccc2c2cc(NN=Nc3ccccc3C(N)=O)ccc21` [Example 4, 2-[3-(9-ethyl-3-carbazolyl)-2(or 1)-triazeno]-benzamide], the responders at 30 mg/kg in series [3] stood at 100%.

In [3], `Cc1nc(NN=Nc2ccccc2C(N)=O)sc1C(=O)N1CCOCC1` [Example 5, 2-[3-(4-methyl-5-morpholinocarbonyl-2-thiazolyl)-2(or 1)-triazeno]-benzamide] showed a responders at 30 mg/kg of 100%. Also, the ED50 in [3] (setting [12]) was 6.7 mg/kg. In turn, `Cc1ccc(NN=Nc2ccccc2C(N)=O)cc1` [Example 8, 2-[3-p-tolyl-1(or 2)-triazeno]-benzamide] had a responders at 30 mg/kg in [3] of 100%.

Regarding `Cc1cc(C)c(NC(=O)c2sc(NN=Nc3ccccc3C(N)=O)nc2C)c(C)c1` [Example 9], the responders at 30 mg/kg in [3] was 60%. `COC(=O)c1ccccc1NN=Nc1ccccc1C(N)=O` [Example 10] returned a responders at 30 mg/kg in series [3] of 80%. Besides, the ED50 in series [3] (setting [12]) was found to be 6 mg/kg. `NC(=O)c1ccccc1N=NNc1ccc(Cl)cc1` [Example 11] showed a responders at 30 mg/kg in series [3] of 40%.

The compound `NC(=O)c1ccccc1N=NNc1ccc([N+](=O)[O-])cc1` [Example 12] yielded a responders at 30 mg/kg in series [3] of 100%.

As for `Cc1ccccc1NN=Nc1ccccc1C(N)=O` [Example 13], in [3], the responders at 30 mg/kg is 100%. Same read-out and setting: with `Cc1cccc(NN=Nc2ccccc2C(N)=O)c1` [Example 14] the figure was 80%; with `NC(=O)c1ccccc1N=NNc1cccc([N+](=O)[O-])c1` [Example 15], 100%; with `Cc1ccc(NN=Nc2ccccc2C(N)=O)cc1C` [Example 16], 60%. On to `Cc1nc(NN=Nc2ccccc2C(N)=O)sc1C(=O)Nc1ccccc1Cl` [Example 17], for which the responders at 30 mg/kg in series [3] came out at 60%. Still for that read-out and setting: next, `Cc1nc(NN=Nc2ccccc2C(N)=O)sc1C(=O)Nc1ccccc1` [Example 18]: 60%; `NC(=O)c1ccccc1N=NNc1cccnc1` [Example 19]: 80%; `NC(=O)c1ccccc1N=NNc1ccc2ncccc2c1` [Example 20]: 40%. On the same count and under the same terms, next, `NC(=O)c1ccccc1N=NNc1cccnc1Cl` [Example 21]: 40%. As to `COc1ccc(NN=Nc2ccccc2C(N)=O)cn1` [Example 22], the responders at 30 mg/kg in series [3] was 100%. Still for that read-out and setting: with `NC(=O)c1ccccc1N=NNc1cccc2c1C(=O)c1ccccc1C2=O` [Example 23] the figure was 40%; with `COc1ccc(NN=Nc2ccccc2C(N)=O)cc1` [Example 24], 100%; with `COc1ccccc1NN=Nc1ccccc1C(N)=O` [Example 25], 60%. Take `CNC(=O)c1ccccc1N=NNc1ccc(C)cc1` [Example 26]: the responders at 30 mg/kg in series [3] worked out at 100%. On the same count and under the same terms, next, `CNC(=O)c1ccccc1N=NNc1ccc(C)c(Cl)c1` [Example 27]: 80%; `CCCCNC(=O)c1ccccc1N=NNc1ccc(C)c(Cl)c1` [Example 28]: 60%. Same read-out and setting: with `CNC(=O)c1ccccc1N=NNc1nc(C)c(C(=O)NCc2ccccc2)s1` [Example 29] the figure was 100%. Take `CCNC(=O)c1ccccc1N=NNc1nc(C)c(C(=O)NCc2ccccc2)s1` [Example 30]: the responders at 30 mg/kg in series [11] was 60%. In series [3], `Cc1nc(NN=Nc2ccccc2C(=O)N(C)C)sc1C(=O)NCc1ccccc1` [Example 31] registered a responders at 30 mg/kg of 60%. `Cc1ccc(NN=Nc2ccccc2C(=O)Nc2ccccc2)cc1` [Example 32] returned a responders at 30 mg/kg in series [3] of 60%. On to `COc1ccc([N+](=O)[O-])cc1NN=Nc1ccccc1C(N)=O` [Example 33], for which, in series [3], the responders at 30 mg/kg came out at 100%. Also, the ED50 in series [3] (setting [12]) was 14 mg/kg. Take `COc1cc([N+](=O)[O-])c(C)cc1NN=Nc1ccccc1C(N)=O` [Example 34]: in series [3], the responders at 30 mg/kg was found to be 100%. For the same compound, the ED50 in series [3] (setting [12]) was determined as 14.5 mg/kg. The like results for `NC(=O)c1ccccc1N=NNc1ccccc1Cl` [Example 35] were, in that order, 80% and 5.2 mg/kg. `NC(=O)c1ccccc1N=NNc1cccc(Cl)c1` [Example 36] yielded a responders at 30 mg/kg in series [3] of 40%. `COc1ccc(Cl)cc1NN=Nc1ccccc1C(N)=O` [Example 37] yielded a responders at 30 mg/kg in series [3] of 60%. Take `CCOc1ccc(NN=Nc2ccccc2C(N)=O)cc1` [Example 38]: in series [3], the responders at 30 mg/kg was 40%. On the same count and under the same terms, next, `Cc1c(Cl)cccc1NN=Nc1ccccc1C(N)=O` [Example 39]: 40%. In the case of `C#CCN(C)Cc1ccccc1` [pargyline], the “excitation, salivation, jumping, and fighting with d1-DOPA” value in series [4] was “excitation, salivation, jumping, and fighting”.
